In ChEMBL document CHEMBL1130763, “Nonpeptide glycoprotein IIb/IIIa inhibitors: substituted quinazolinediones and quinazolinones as potent fibrinogen receptor antagonists” (Bioorg Med Chem Lett, 1998):

Organism: Homo sapiens
Test: In vitro inhibition of platelet aggregation by measuring its effect on the ADP-stimulated aggregation of human platelets
Assay type: functional

SMILES	IC50 [nM]
CCCCS(=O)(=O)NC(CC#Cc1ccc2c(c1)c(=O)n(CCC1CCNCC1)c(=O)n2Cc1ccncc1)C(=O)O (configuration not stated)	74
CCCCS(=O)(=O)N[C@@H](CNC(=O)c1ccc2c(c1)C(=O)N(CCC1CCNCC1)C2)C(=O)O	9
CCCCS(=O)(=O)N[C@@H](Cc1ccc(OCCCCC2CCNCC2)cc1)C(=O)O	15
CCCCS(=O)(=O)NC(CCCc1ccc2c(c1)c(=O)n(CCC1CCNCC1)c(=O)n2Cc1ccncc1)C(=O)O (configuration not stated)	100
CCCCS(=O)(=O)NC(CNC(=O)c1ccc2[nH]c(=O)n(CCC3CCNCC3)c(=O)c2c1)C(=O)O (configuration not stated)	210
CCCCS(=O)(=O)NC(CC#Cc1ccc2c(c1)c(=O)n(CCC1CCNCC1)c(=O)n2C)C(=O)O (configuration not stated)	67
CCCCS(=O)(=O)NC(CC#Cc1ccc2c(c1)c(=O)n(CCC1CCNCC1)c(=O)n2Cc1ccccc1)C(=O)O (configuration not stated)	61
CCCCS(=O)(=O)NC(CCCc1ccc2c(c1)c(=O)n(CCC1CCNCC1)c(=O)n2C)C(=O)O (configuration not stated)	140
CCCCS(=O)(=O)NC(CCCc1ccc2c(c1)c(=O)n(CCC1CCNCC1)c(=O)n2Cc1ccccc1)C(=O)O (configuration not stated)	160
CCCCS(=O)(=O)NC(CC#Cc1ccc2[nH]c(=O)n(CCC3CCNCC3)c(=O)c2c1)C(=O)O (configuration not stated)	37
CCCCS(=O)(=O)NC(CCCc1ccc2[nH]c(=O)n(CCC3CCNCC3)c(=O)c2c1)C(=O)O (configuration not stated)	160
CCCCS(=O)(=O)NC(CC#Cc1ccc2nc(C)n(CCC3CCNCC3)c(=O)c2c1)C(=O)O (configuration not stated)	43
